Results reported in US6515124B2, “Dehydroamino acids” (Hoffman-La Roche Inc., priority 2000, dated 2003).

Assays:
[1] = target: T1, LFA-1 binding to immobilized ICAM-1 (Homo sapiens, UniProt P05107+P20701); experiment: LFA-1/ICAM-1 Protein-Protein Assay (solid-phase ELISA); conditions: 5dICAM-Ig coated plates, membrane-bound LFA-1 from transfected 293 cells
T1 construct: made in house; host or cells: transfected 293 cells (LFA-1)
Method: LFA-1/ICAM-1 Protein-Protein Assay
LFA-1/ICAM-1 antagonist activity, defined as the ability to block LFA-1 binding to immobilized ICAM-1, was quantitated using a solid-phase ELISA. Typically, fusion protein consisting of the entire extracellular domain of human ICAM-1 and the Fc domain of human IgG (5dICAM-Ig) was coated onto 96-well microtiter plates (0.15 μg in 100 μL PBS) overnight at 4° C. The plates were then blocked with 150 μL of 1% BSA/1 mM MnCl2/0.14 M NaCl/20 mM HEPES, pH 7.2 for 1 h at 37° C. and washed 3 times (150 μL each) with Wash Buffer (50 mM Tris, pH 7.4/100 mM NaCl/1 mM MnCl2/0.05% Tween 20). Stock solutions (100 μM in 100% DMSO) of test compounds were diluted 50 fold with 150 μL of Binding Buffer (0.05% BSA/0.05% Tween 20/1 mM MnCl2/0.14 M NaCl/20 mM HEPES, pH 7.2) plus 10% DMSO. A series of 1:4 dilutions were performed to achieve a concentration range of 0.12 nM-2 μM. Fifty μL per well of each dilution was added to the ICAM-1 coated plates, followed by 50 μL per well of membrane-bound LFA-1 (280 ng/mL in Binding Buffer) derived from transfected 293 cells. The plates were shaken vigorously for 1 min (room temperature) and gently for 2 h (37° C.). After incubation, the plates were washed 3 times (150 μL each) with Wash Buffer. Mouse anti-human integrin β2 monoclonal antibody was added (100 μL/well, 1 μg/ml in Binding Buffer) and allowed to incubate for 1 h (37° C.) with gentle agitation. The plates were then washed 3 times with Wash Buffer. HRP-conjugated goat anti-mouse IgG (100 μL/well, 1:1500 dilution in Binding Buffer) was added to each well, followed by incubation for 1 h (37° C.) and concluded by three washes (150 μL each) with Wash Buffer. TMB solution (100 μL per well) was added for color development (10 min). The reaction was stopped by the addition of 100 μL of 1M H3PO4 to each well. The plates were then read at 450 nm.

[2] = tested on: T lymphocyte proliferation (murine spleen cells); experiment: Mixed Lymphocyte Reaction (MLR), one-way; format: cell-based, mice; conditions: C57B1/6 spleen cells with irradiated BALB/c spleen cells, tritiated thymidine incorporation, 3 days
Text: Mixed Lymphocyte Reaction (MLR)
Admixture of murine spleen cells from two different inbred strains of mice induces proliferation of T lymphocytes. The magnitude of T cell proliferation depends on the extent of disparity in the major histocompatibility antigens between the two strains. Splenic T lymphocytes from both strains proliferate due to alloantigen recognition, a process for which the interaction of ICAM-1 on antigen-presenting cells with LFA-1 on lymphocytes is necessary. The ability of antagonists to inhibit T lymphocyte proliferation following recognition of alloantigens was assessed in a one-way MLR, where cells from one strain were irradiated to permit measurement of the proliferative response of cells from the other strain. Spleen cells were washed three times in tissue culture medium (TCM; see below). Fifty microliters of a spleen cell suspension (prepared at 10×10^6 cells/ml in TCM) obtained from C57B1/6 mice were added to an equal number of lethally-irradiated (2000 rads) spleen cells obtained from BALB/c mice in a 96-well U-bottom tissue culture plate (Costar, 3799). One hundred microliters of serial dilutions of antagonists or TCM were added to the spleen cell mixture. The total volume in each well was 200 μL. TCM was RPMI1640 containing 10% heat-inactivated fetal bovine serum, […] L-glutamine, 100 Units/ml each of penicillin and streptomycin and 5×10^−5 M 2-mercaptoethanol. Dilutions of antagonists were prepared in TCM. Plates were incubated in 5% CO2 for 3 days. On the third day, 0.5 μCi of tritiated thymidine (10 μCi/mL) was added to all the wells. Cells were harvested 6 h later on a 96-well plate harvester and the amount of tritiated thymidine incorporated was assessed in a liquid scintillation counter.

[3] = Mus musculus, T-lymphocyte, light or radiation study, 72 h

T1 sequence (P20701 26-1170): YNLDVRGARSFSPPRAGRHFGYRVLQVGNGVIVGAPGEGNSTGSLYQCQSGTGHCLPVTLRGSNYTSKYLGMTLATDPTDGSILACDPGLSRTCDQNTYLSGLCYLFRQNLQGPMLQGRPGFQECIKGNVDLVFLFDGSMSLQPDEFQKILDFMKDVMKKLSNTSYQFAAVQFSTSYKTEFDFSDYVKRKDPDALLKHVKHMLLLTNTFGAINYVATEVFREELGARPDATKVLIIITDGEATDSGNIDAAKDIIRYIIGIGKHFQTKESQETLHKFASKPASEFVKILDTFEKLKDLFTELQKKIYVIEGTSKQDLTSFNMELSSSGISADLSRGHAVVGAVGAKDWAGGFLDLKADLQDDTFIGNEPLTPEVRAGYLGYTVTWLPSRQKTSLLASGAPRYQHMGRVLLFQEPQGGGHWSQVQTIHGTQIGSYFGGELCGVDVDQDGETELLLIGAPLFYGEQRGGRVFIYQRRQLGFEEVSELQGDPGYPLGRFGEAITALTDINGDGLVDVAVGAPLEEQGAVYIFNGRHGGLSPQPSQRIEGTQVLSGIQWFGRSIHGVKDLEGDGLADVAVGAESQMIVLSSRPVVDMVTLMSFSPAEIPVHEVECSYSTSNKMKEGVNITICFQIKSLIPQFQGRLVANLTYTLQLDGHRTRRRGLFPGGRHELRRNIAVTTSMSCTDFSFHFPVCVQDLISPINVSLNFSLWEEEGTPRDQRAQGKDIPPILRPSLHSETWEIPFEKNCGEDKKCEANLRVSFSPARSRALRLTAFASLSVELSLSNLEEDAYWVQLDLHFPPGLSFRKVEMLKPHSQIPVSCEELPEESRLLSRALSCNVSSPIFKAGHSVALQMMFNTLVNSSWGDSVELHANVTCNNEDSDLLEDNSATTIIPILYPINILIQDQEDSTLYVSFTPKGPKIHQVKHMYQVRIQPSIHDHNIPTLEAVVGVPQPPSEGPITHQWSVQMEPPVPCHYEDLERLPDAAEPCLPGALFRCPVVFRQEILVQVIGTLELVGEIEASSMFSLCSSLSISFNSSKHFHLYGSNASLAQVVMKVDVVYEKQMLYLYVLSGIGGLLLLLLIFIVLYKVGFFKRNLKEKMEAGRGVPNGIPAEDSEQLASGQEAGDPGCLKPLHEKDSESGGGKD
T1 sequence (P05107 23-769): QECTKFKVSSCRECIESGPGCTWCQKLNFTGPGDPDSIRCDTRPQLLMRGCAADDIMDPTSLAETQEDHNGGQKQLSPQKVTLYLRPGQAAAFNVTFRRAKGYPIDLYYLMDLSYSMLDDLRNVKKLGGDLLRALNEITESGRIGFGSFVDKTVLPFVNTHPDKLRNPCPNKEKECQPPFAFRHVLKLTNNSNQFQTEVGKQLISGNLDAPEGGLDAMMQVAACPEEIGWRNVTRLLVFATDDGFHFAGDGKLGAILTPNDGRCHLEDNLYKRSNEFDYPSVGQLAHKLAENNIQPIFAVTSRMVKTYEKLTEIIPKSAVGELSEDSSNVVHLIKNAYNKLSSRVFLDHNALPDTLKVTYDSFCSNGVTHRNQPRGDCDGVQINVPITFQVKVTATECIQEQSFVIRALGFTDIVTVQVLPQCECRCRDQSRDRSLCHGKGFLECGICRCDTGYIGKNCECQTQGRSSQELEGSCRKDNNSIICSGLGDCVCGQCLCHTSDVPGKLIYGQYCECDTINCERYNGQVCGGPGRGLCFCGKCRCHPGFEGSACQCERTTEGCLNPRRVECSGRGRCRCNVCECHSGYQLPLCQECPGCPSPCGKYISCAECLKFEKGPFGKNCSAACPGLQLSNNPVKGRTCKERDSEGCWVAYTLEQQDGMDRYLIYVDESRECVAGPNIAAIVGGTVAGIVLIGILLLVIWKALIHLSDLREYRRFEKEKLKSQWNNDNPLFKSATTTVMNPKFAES

| IC50 [1] [nM] | IC50 ([1]; mono sodium salt) [nM] | Structure (SMILES) | IC50 [2, 3] [nM] | IC50 ([2]; listed as 258^b) [nM] |
| --- | --- | --- | --- | --- |
| 2 | – | O=C(O)/C(=C/c1ccc2nsnc2c1)NC(=O)c1ccc(C(=O)NCc2cccc(O)c2)cc1Cl [Example 247] | 5150 | – |
| 3.96 | – | Cc1nc(C)c(/C=C(\NC(=O)c2c(C)cc(C(=O)NCc3cccc(O)c3)cc2C)C(=O)O)s1 [Example 248] | 24000 | – |
| 5.78 | – | Cc1nc(C)c(/C=C(\NC(=O)c2ccc(C(=O)NCc3cccc4[nH]ccc34)cc2Br)C(=O)O)s1 [Example 249] | 16000 | – |
| 20.5 | – | Cc1nc(C)c(/C=C(\NC(=O)c2c(C)cc(C(=O)N[C@H](C)c3cccc4ccccc34)cc2C)C(=O)O)s1 [Example 251] | 20000 | – |
| 2.68 | – | C[C@@H](NC(=O)c1cc(Cl)c(C(=O)N/C(=C\c2cnc3ccccc3c2)C(=O)O)c(Cl)c1)c1cccc2ccccc12 [Example 252] | 2500 | – |
| 6.54 | – | Cc1cc(C(=O)NCc2cc(F)cc(F)c2)cc(C)c1C(=O)N/C(=C\c1cnc2ccccc2c1)C(=O)O [Example 253] | 8100 | – |
| 110 | – | Cc1nc(C)c(/C=C(\NC(=O)c2c(C)cc(C(=O)NCc3cc(F)cc(F)c3)cc2C)C(=O)O)s1 [Example 254] | 95000 | – |
| 5.82 | – | O=C(O)/C(=C/c1cnc2ccccc2c1)NC(=O)c1ccc(C(=O)NCc2cccc3[nH]ccc23)cc1Br [Example 255] | 14800 | – |
| 2.33 | 2.01 | Cc1nc(C)c(/C=C(\NC(=O)c2ccc(C(=O)NCc3cccc(O)c3)cc2Br)C(=O)O)s1 [Example 258] | 2050 | 2740 |
| 0.77 | – | CN(C)c1ncc(/C=C(\NC(=O)c2ccc(C(=O)NCc3cccc(O)c3)cc2Br)C(=O)O)s1 [Example 260] | 3000 | – |
| 39.6 | – | O=C(O)/C(=C/c1cnc(N2CCOCC2)s1)NC(=O)c1ccc(C(=O)NCc2cccc(O)c2)cc1Br [Example 261] | 26000 | – |
| 6.86 | – | Cc1nnsc1/C=C(\NC(=O)c1ccc(C(=O)NCc2cccc(O)c2)cc1Br)C(=O)O [Example 263] | 2850 | – |
| 4.2 | – | O=C(O)/C(=C/c1csc2ccccc12)NC(=O)c1ccc(C(=O)NCc2cccc(O)c2)cc1Br [Example 264] | 13000 | – |
| 2.7 | – | O=C(O)/C(=C/c1cnc(Cl)s1)NC(=O)c1ccc(C(=O)NCc2cccc(O)c2)cc1Cl [Example 266] | 9000 | – |
| 6.37 | – | O=C(O)/C(=C/c1ccc2ncsc2c1)NC(=O)c1ccc(C(=O)NCc2cccc3[nH]ccc23)cc1Br [Example 267] | 6380 | – |
| 10.6 | – | O=C(O)/C(=C/c1nccs1)NC(=O)c1ccc(C(=O)NCc2cccc(O)c2)cc1Br [Example 268, (Z)-2-[[2-Bromo-4-[[(3-hydroxybenzyl)amino]carbonyl]benzoyl]amino]-3-(thiazol-2-yl)propenoic Acid] | 9000 | – |
| 4.31 | – | O=C(O)/C(=C/c1ccccc1)NC(=O)c1ccc(C(=O)NCc2cccc(O)c2)cc1Br [Example 269] | 2200 | – |
| 20.3 | – | O=C(O)/C(=C/c1cccc2ccccc12)NC(=O)c1ccc(C(=O)NCc2cccc(O)c2)cc1Br [Example 270] | 20000 | – |
| 1.4 | – | O=C(O)/C(=C/c1ccccc1O)NC(=O)c1ccc(C(=O)NCc2cccc(O)c2)cc1Br [Example 272] | 1500 | – |
| 5.4 | – | O=C(O)/C(=C/c1ccccn1)NC(=O)c1ccc(C(=O)NCc2cccc(O)c2)cc1Br [Example 273] | 1400 | – |
| 0.62 | – | O=C(O)/C(=C/c1ccc2ccccc2c1)NC(=O)c1ccc(C(=O)NCc2cccc(O)c2)cc1Br [Example 274] | 1650 | – |
| 0.53 | – | O=C(O)/C(=C/c1cnc2ccccc2c1)NC(=O)c1ccc(C(=O)NCc2cccc(O)c2)cc1Br [Example 277] | 356 | – |
| 2 | – | O=C(O)/C(=C/c1cnc[nH]1)NC(=O)c1ccc(C(=O)NCc2cccc(O)c2)cc1Br [Example 278] | 1450 | – |
